Test results published in ChEMBL document CHEMBL5724806, “Unraveling interindividual differences and functional consequences of gut microbial metabolism of immunosuppressants” (2024).

Tests used:
Assay type in all cases: ADME
[1] = (§1) The drug is tested on Alloscardovia omnicolens strain: DSM21503 for biotransformation under anaerobic condition. The drug concentrations were measured over 6 timepoints collected between 0 and 12 hours of incubation by liquid-chromatography-coupled mass spectrometry (LC–MS); design: dose 5 uM, timepoint 0, 1.5, 3, 6, 9, 12 hours; conditions: 5 µM
[2] = The drug is tested on Bifidobacterium adolescentis strain: DSM20083 for biotransformation under anaerobic condition. The drug concentrations were measured over 6 timepoints collected between 0 and 12 hours of incubation by liquid-chromatography-coupled mass spectrometry (LC–MS); design: dose 5 uM, timepoint 0, 1.5, 3, 6, 9, 12 hours; conditions: 5 µM
[3] = The drug is tested on Bifidobacterium longum strain: DSM20088 for biotransformation under anaerobic condition. The drug concentrations were measured over 6 timepoints collected between 0 and 12 hours of incubation by liquid-chromatography-coupled mass spectrometry (LC–MS); design: dose 5 uM, timepoint 0, 1.5, 3, 6, 9, 12 hours; conditions: 5 µM
[4] = The drug is tested on Bacteroides stercoris strain: HM 1036 for biotransformation under anaerobic condition. The drug concentrations were measured over 6 timepoints collected between 0 and 12 hours of incubation by liquid-chromatography-coupled mass spectrometry (LC–MS); design: dose 5 uM, timepoint 0, 1.5, 3, 6, 9, 12 hours; conditions: 5 µM
[5] = The drug is tested on Odoribacter splanchnicus strain: DSM20712 for biotransformation under anaerobic condition. The drug concentrations were measured over 6 timepoints collected between 0 and 12 hours of incubation by liquid-chromatography-coupled mass spectrometry (LC–MS); design: dose 5 uM, timepoint 0, 1.5, 3, 6, 9, 12 hours; conditions: 5 µM
[6] = The drug is tested on Prevotella copri strain: DSM18205 for biotransformation under anaerobic condition. The drug concentrations were measured over 6 timepoints collected between 0 and 12 hours of incubation by liquid-chromatography-coupled mass spectrometry (LC–MS); design: dose 5 uM, timepoint 0, 1.5, 3, 6, 9, 12 hours; conditions: segatella copri, 5 µM
[7] = The drug is tested on Coprococcus comes strain: ATCC27758 for biotransformation under anaerobic condition. The drug concentrations were measured over 6 timepoints collected between 0 and 12 hours of incubation by liquid-chromatography-coupled mass spectrometry (LC–MS); design: dose 5 uM, timepoint 0, 1.5, 3, 6, 9, 12 hours; conditions: 5 µM
[8] = The drug is tested on Lactobacillus paracasei strain: ATCC27092 for biotransformation under anaerobic condition. The drug concentrations were measured over 6 timepoints collected between 0 and 12 hours of incubation by liquid-chromatography-coupled mass spectrometry (LC–MS); design: dose 5 uM, timepoint 0, 1.5, 3, 6, 9, 12 hours; conditions: lacticaseibacillus paracasei, 5 µM
[9] = The drug is tested on Lactobacillus reuteri strain: DSM20016 for biotransformation under anaerobic condition. The drug concentrations were measured over 6 timepoints collected between 0 and 12 hours of incubation by liquid-chromatography-coupled mass spectrometry (LC–MS); design: dose 5 uM, timepoint 0, 1.5, 3, 6, 9, 12 hours; conditions: limosilactobacillus reuteri, 5 µM
[10] = The drug is tested on Streptococcus salivarius strain: DSM20560 for biotransformation under anaerobic condition. The drug concentrations were measured over 6 timepoints collected between 0 and 12 hours of incubation by liquid-chromatography-coupled mass spectrometry (LC–MS); design: dose 5 uM, timepoint 0, 1.5, 3, 6, 9, 12 hours; conditions: 5 µM
[11] = The drug is tested on Enterococcus faecalis strain: ATCC29212 for biotransformation under anaerobic condition. The drug concentrations were measured over 6 timepoints collected between 0 and 12 hours of incubation by liquid-chromatography-coupled mass spectrometry (LC–MS); design: dose 5 uM, timepoint 0, 1.5, 3, 6, 9, 12 hours; conditions: 5 µM
[12] = The drug is tested on Escherichia coli strain: DSM27469 for biotransformation under anaerobic condition. The drug concentrations were measured over 6 timepoints collected between 0 and 12 hours of incubation by liquid-chromatography-coupled mass spectrometry (LC–MS); design: dose 5 uM, timepoint 0, 1.5, 3, 6, 9, 12 hours; conditions: 5 µM
[13] = (§2) The drug is tested on Actinomyces graevenitzii strain: DSM15540 for biotransformation under microaerobic condition. The drug concentrations were measured over 6 timepoints collected between 0 and 12 hours of incubation by liquid-chromatography-coupled mass spectrometry (LC–MS); design: dose 5 uM, timepoint 0, 1.5, 3, 6, 9, 12 hours; conditions: 5 µM
[14] = The drug is tested on Lactobacillus paracasei strain: ATCC27092 for biotransformation under microaerobic condition. The drug concentrations were measured over 6 timepoints collected between 0 and 12 hours of incubation by liquid-chromatography-coupled mass spectrometry (LC–MS); design: dose 5 uM, timepoint 0, 1.5, 3, 6, 9, 12 hours; conditions: lacticaseibacillus paracasei, 5 µM
[15] = The drug is tested on Lactobacillus ruminis strain: ATCC25644 for biotransformation under microaerobic condition. The drug concentrations were measured over 6 timepoints collected between 0 and 12 hours of incubation by liquid-chromatography-coupled mass spectrometry (LC–MS); design: dose 5 uM, timepoint 0, 1.5, 3, 6, 9, 12 hours; conditions: ligilactobacillus ruminis, 5 µM
[16] = The drug is tested on Streptococcus salivarius strain: DSM20560 for biotransformation under microaerobic condition. The drug concentrations were measured over 6 timepoints collected between 0 and 12 hours of incubation by liquid-chromatography-coupled mass spectrometry (LC–MS); design: dose 5 uM, timepoint 0, 1.5, 3, 6, 9, 12 hours; conditions: 5 µM
[17] = The drug is tested on Escherichia coli strain: DSM27469 for biotransformation under microaerobic condition. The drug concentrations were measured over 6 timepoints collected between 0 and 12 hours of incubation by liquid-chromatography-coupled mass spectrometry (LC–MS); design: dose 5 uM, timepoint 0, 1.5, 3, 6, 9, 12 hours; conditions: 5 µM
[18] = as §1, with “the gut metagenome community of A-02 with ENA study accession number: PRJEB31790” for “Alloscardovia omnicolens strain: DSM21503”, “7” for “6”; design: dose 5 uM, timepoint 0, 0.75, 1.5, 3, 6, 9, 12 hours; conditions: 5 µM
[19] = as §1, with “the gut metagenome community of A-03 with ENA study accession number: PRJEB31790” for “Alloscardovia omnicolens strain: DSM21503”, “7” for “6”; design: dose 5 uM, timepoint 0, 0.75, 1.5, 3, 6, 9, 12 hours; conditions: 5 µM
[20] = as §1, with “the gut metagenome community of P-01 with ENA study accession number: PRJEB31790” for “Alloscardovia omnicolens strain: DSM21503”, “7” for “6”; design: dose 5 uM, timepoint 0, 0.75, 1.5, 3, 6, 9, 12 hours; conditions: 5 µM
[21] = as §1, with “the gut metagenome community of T-03 with ENA study accession number: PRJEB31790” for “Alloscardovia omnicolens strain: DSM21503”, “7” for “6”; design: dose 5 uM, timepoint 0, 0.75, 1.5, 3, 6, 9, 12 hours; conditions: 5 µM
[22] = as §1, with “the gut metagenome community of T-04 with ENA study accession number: PRJEB31790” for “Alloscardovia omnicolens strain: DSM21503”, “7” for “6”; design: dose 5 uM, timepoint 0, 0.75, 1.5, 3, 6, 9, 12 hours; conditions: 5 µM
[23] = as §2, with “the gut metagenome community of A-02 with ENA study accession number: PRJEB31790” for “Actinomyces graevenitzii strain: DSM15540”, “7” for “6”; design: dose 5 uM, timepoint 0, 0.75, 1.5, 3, 6, 9, 12 hours; conditions: 5 µM
[24] = as §2, with “the gut metagenome community of A-07 with ENA study accession number: PRJEB31790” for “Actinomyces graevenitzii strain: DSM15540”, “7” for “6”; design: dose 5 uM, timepoint 0, 0.75, 1.5, 3, 6, 9, 12 hours; conditions: 5 µM
[25] = as §2, with “the gut metagenome community of A-10 with ENA study accession number: PRJEB31790” for “Actinomyces graevenitzii strain: DSM15540”, “7” for “6”; design: dose 5 uM, timepoint 0, 0.75, 1.5, 3, 6, 9, 12 hours; conditions: 5 µM
[26] = as §2, with “the gut metagenome community of P-01 with ENA study accession number: PRJEB31790” for “Actinomyces graevenitzii strain: DSM15540”, “7” for “6”; design: dose 5 uM, timepoint 0, 0.75, 1.5, 3, 6, 9, 12 hours; conditions: 5 µM
[27] = as §2, with “the gut metagenome community of P-03 with ENA study accession number: PRJEB31790” for “Actinomyces graevenitzii strain: DSM15540”, “7” for “6”; design: dose 5 uM, timepoint 0, 0.75, 1.5, 3, 6, 9, 12 hours; conditions: 5 µM
[28] = as §2, with “the gut metagenome community of T-03 with ENA study accession number: PRJEB31790” for “Actinomyces graevenitzii strain: DSM15540”, “7” for “6”; design: dose 5 uM, timepoint 0, 0.75, 1.5, 3, 6, 9, 12 hours; conditions: 5 µM
[29] = as §2, with “the gut metagenome community of T-04 with ENA study accession number: PRJEB31790” for “Actinomyces graevenitzii strain: DSM15540”, “7” for “6”; design: dose 5 uM, timepoint 0, 0.75, 1.5, 3, 6, 9, 12 hours; conditions: 5 µM
[30] = as §2, with “the gut metagenome community of T-05 with ENA study accession number: PRJEB31790” for “Actinomyces graevenitzii strain: DSM15540”, “7” for “6”; design: dose 5 uM, timepoint 0, 0.75, 1.5, 3, 6, 9, 12 hours; conditions: 5 µM

Compound | Bacterial Biotransformation [1] | Bacterial Biotransformation [2] | Bacterial Biotransformation [3] | Bacterial Biotransformation [4] | Bacterial Biotransformation [5] | Bacterial Biotransformation [6] | Bacterial Biotransformation [7] | Bacterial Biotransformation [8] | Bacterial Biotransformation [9] | Bacterial Biotransformation [10] | Bacterial Biotransformation [11] | Bacterial Biotransformation [12] | Bacterial Biotransformation [13] | Bacterial Biotransformation [14] | Bacterial Biotransformation [15] | Bacterial Biotransformation [16] | Bacterial Biotransformation [17] | Bacterial Biotransformation [18] | Bacterial Biotransformation [19] | Bacterial Biotransformation [20] | further results
NS(=O)(=O)c1cc(C(=O)O)c(NCc2ccco2)cc1Cl [FUROSEMIDE] | Compound NOT metabolized | Compound NOT metabolized | Compound NOT metabolized | Compound NOT metabolized | Compound NOT metabolized | Compound NOT metabolized | Compound NOT metabolized | Compound NOT metabolized | Compound NOT metabolized | Compound NOT metabolized | Compound NOT metabolized | Compound NOT metabolized | Compound NOT metabolized | Compound NOT metabolized | Compound NOT metabolized | Compound NOT metabolized | Compound NOT metabolized | Compound NOT metabolized | Compound NOT metabolized | Compound NOT metabolized | Bacterial Biotransformation [21]: Compound NOT metabolized; Bacterial Biotransformation [22]: Compound NOT metabolized; Bacterial Biotransformation [23]: Compound NOT metabolized; Bacterial Biotransformation [24]: Compound NOT metabolized; Bacterial Biotransformation [25]: Compound NOT metabolized; Bacterial Biotransformation [26]: Compound NOT metabolized; Bacterial Biotransformation [27]: Compound NOT metabolized; Bacterial Biotransformation [28]: Compound NOT metabolized; Bacterial Biotransformation [29]: Compound NOT metabolized; Bacterial Biotransformation [30]: Compound NOT metabolized
C[C@]12CCC(=O)C=C1CC[C@@H]1[C@@H]2[C@@H](O)C[C@@]2(C)[C@H]1CC[C@]2(O)C(=O)CO [HYDROCORTISONE] | Compound NOT metabolized | Compound NOT metabolized | Compound NOT metabolized | Compound NOT metabolized | Compound NOT metabolized | Compound NOT metabolized | Compound NOT metabolized | Compound NOT metabolized | Compound NOT metabolized | Compound NOT metabolized | Compound NOT metabolized | Compound NOT metabolized | Compound NOT metabolized | Compound NOT metabolized | Compound NOT metabolized | Compound metabolized | Compound NOT metabolized | Compound metabolized | Compound metabolized | Compound metabolized | Bacterial Biotransformation [21]: Compound NOT metabolized; Bacterial Biotransformation [22]: Compound NOT metabolized; Bacterial Biotransformation [23]: Compound metabolized; Bacterial Biotransformation [24]: Compound metabolized; Bacterial Biotransformation [25]: Compound metabolized; Bacterial Biotransformation [26]: Compound metabolized; Bacterial Biotransformation [27]: Compound metabolized; Bacterial Biotransformation [28]: Compound NOT metabolized; Bacterial Biotransformation [29]: Compound NOT metabolized; Bacterial Biotransformation [30]: Compound metabolized
CN(Cc1cnc2nc(N)nc(N)c2n1)c1ccc(C(=O)N[C@@H](CCC(=O)O)C(=O)O)cc1 [METHOTREXATE] | Compound NOT metabolized | Compound NOT metabolized | Compound NOT metabolized | Compound NOT metabolized | Compound NOT metabolized | Compound NOT metabolized | Compound metabolized | Compound NOT metabolized | Compound NOT metabolized | Compound NOT metabolized | Compound NOT metabolized | Compound NOT metabolized | Compound NOT metabolized | Compound NOT metabolized | Compound NOT metabolized | Compound NOT metabolized | Compound NOT metabolized | Compound metabolized | Compound metabolized | Compound NOT metabolized | Bacterial Biotransformation [21]: Compound NOT metabolized; Bacterial Biotransformation [22]: Compound NOT metabolized; Bacterial Biotransformation [23]: Compound metabolized; Bacterial Biotransformation [24]: Compound metabolized; Bacterial Biotransformation [25]: Compound metabolized; Bacterial Biotransformation [26]: Compound NOT metabolized; Bacterial Biotransformation [27]: Compound NOT metabolized; Bacterial Biotransformation [28]: Compound NOT metabolized; Bacterial Biotransformation [29]: Compound NOT metabolized; Bacterial Biotransformation [30]: Compound metabolized
